Test results from ChEMBL document CHEMBL4393693, “Synthesis and Structure-Activity relationship of 1-(5-isoquinolinesulfonyl)piperazine analogues as inhibitors of Mycobacterium tuberculosis IMPDH” (Eur J Med Chem, 2019).

Legend:
[1] = Selective ratio of inhibition of GuaB2 Tyr487Cys mutant in Mycobacterium tuberculosis H37Rv SRMV2.6 to inhibition of wild type GuaB2 in Mycobacterium tuberculosis H37Rv
[2] = system: Mycobacterium tuberculosis; assay: Antimycobacterial activity against Mycobacterium tuberculosis H37Rv SRMV2.6 harboring GuaB2 Tyr487Cys mutant assessed as reduction in bacterial cell growth incubated for 3 to 4 weeks by alamar blue fluorescence based broth microdilution assay; assay type: functional

## O=C(C1CCCCC1)N1CCN(S(=O)(=O)c2cccc3cnccc23)CC1
[1]
  Ratio: 32

## CC1CCCCC1C(=O)N1CCN(S(=O)(=O)c2cccc3cnccc23)CC1 (configuration not stated)
[1]
  Ratio: 16 to 32

## CC1CN(S(=O)(=O)c2cccc3cnccc23)CCN1C(=O)Nc1ccc2c(c1)OCO2 (configuration not stated)
[1]
  Ratio: 8 to 16

## O=C(Nc1ccc2c(c1)OCO2)N1CCN(S(=O)(=O)c2cccc3cnccc23)CC1
[1]
  Ratio: 4

## COc1cccc(CNC(=O)N2CCN(S(=O)(=O)c3cccc4cnccc34)CC2)c1
[2]
  MIC90: >100 µM

## O=C(Nc1ccc2c(c1)OCO2)N1CCCN(S(=O)(=O)c2cccc3cnccc23)CC1
[1]
  Ratio: 8 to 16

## Cc1ccccc1CNC(=O)N1CCN(S(=O)(=O)c2cccc3cnccc23)CC1
[1]
  Ratio: 16 to 32
